Reference: patent publication US20220389067A1, “Methods of Treating Neurodegenerative Diseases Caused by G4C2 Expansion in C9ORF72” (The Board of Trustees of the Leland Stanford Junior …, priority 2019, published 2022)

Key:
GR80 = experiment: Effect of CAT-tailing inhibition on poly(GR) level; type: cell-based; conditions: FIG. 82
Description: Ribosome-stalled NPC is modified by a non-templated, 40S-independent CAT-tailing process that depends on Tae2/Clbn/NEMF family proteins. CAT-tailed substrates escaping the quality control system can accumulate and form aggregates. […] Consistently, RNAi of a fly homolog of Vms1, a stress-responsive mitochondrial RQC factor that antagonizes CAT-tailing by cleaving peptidyl-tRNA bond, increased high MW GR80 signal and total GR80 abundance (FIG. 77), whereas overexpression of mammalian Vms1 (ANKZF1) had opposite effect (FIG. 78). In C9ALS fibroblasts, ANKZF1 RNAi increased, whereas NEMF RNAi decreased poly(GR) (FIG. 78). Thus steady-state poly(GR) level is positively correlated with a CAT-tailing-like process.
The role of Ala- or Thr-tRNA synthetase (AARS or TARS) was examined. […] The specificity of the ARS effect was shown by the lack of effect of the other ARSs tested (FIG. 79). Thus AARS/TARS, and possibly select other ARSs (e.g., IARS), appear to be involved in GR80 CAT-tailing, and that CAT-tailing confers stabilization, aggregation, and toxicity. Further supporting this notion, poly(GR) containing an artificial CAT-tail (GR71-AT15) formed prominent aggregates on mitochondria on its own, and its level was not affected by NEMF RNAi or anisomycin treatment (FIG. 82).

[1] = test system: C9ALS/FTD BAC transgenic mice (C9-500); experiment: Rotarod assay in C9-500 BAC transgenic mice; type: in vivo, mouse; conditions: C9-500 mice, i.p. 40 mg/kg/day, FIG. 95
Experimental: (§1) Non-canonical Notch regulation of poly(GR) was then tested in mammalian cells. In HEK293T cells, overexpression of Notch (FIG. 91), or treatment of cells with the ATK activator SC79 (FIGS. 91 & 92) reduced Flag-GR80 level, whereas small molecule inhibitor of AKT (AKTi) or VCP (VCPi) increased Flag-GR80 level (FIG. 93). Similar to fly tissue, the Notch overexpression effect was blocked by VCPi (FIG. 91). […] On the other hand, AKTi or VCPi increased poly(GR) level (FIGS. 78 & 94). To further test the in vivo relevance, the C9ALS/FTD BAC transgenic mice (C9-500) were examined, which express a human C9orf72 gene with ˜500 G4C2 repeats. Treatment of C9-500 mice by i.p. injection of SC79 (40 mg/kg/day) improved motor behavior as detected with the rotarod assay (FIG. 95). This was correlated with rescue of muscle mitochondrial morphology (FIGS. 95 & 96) and reduction of poly(GR) (FIGS. 97 & 98) but not poly(GA) (FIGS. 98 & 99) levels in muscle tissue. […]
Female C9-500 BAC transgenic mice were i.p. injected with sc79 (Selleckchem) at 40 mg/kg/day (n=10) or vehicle (DMSO [Sigma]: PEG300 [Spectrum]: 2-Hydroxypropyl-beta-cyclodextran (20%) [Sigma] at 1:3:1) (n=8) from 16 weeks of age and continued for 3 months. […] Once all the mice were “ready”, the start button was pushed and the test began. […] The fall-off times of each animal were recorded and used for statistical analysis.

[2] = test system: Flag-GR80 in HEK293T cells; experiment: Flag-GR80 level in HEK293T cells (non-canonical Notch/AKT/VCP modulation); type: cell-based; conditions: FIGS. 91-93
[3] = test system: muscle tissue of C9-500 mice; experiment: Muscle mitochondrial morphology and DPR levels in C9-500 mice; type: in vivo, mouse; conditions: i.p. 40 mg/kg/day
Experimental: as §1
Female C9-500 BAC transgenic mice were i.p. injected with sc79 (Selleckchem) at 40 mg/kg/day (n=10) or vehicle (DMSO [Sigma]: PEG300 [Spectrum]: 2-Hydroxypropyl-beta-cyclodextran (20%) [Sigma] at 1:3:1) (n=8) from 16 weeks of age and continued for 3 months. […] Once all the mice were “ready”, the start button was pushed and the test began. […] The fall-off times of each animal were recorded and used for statistical analysis. […]

patient fibroblasts = experiment: poly(GR) level and mitochondrial morphology in patient fibroblasts (AKT/VCP modulation); type: cell-based, human
[4] = test system: fibroblasts from C9-ALS/FTD patients carrying C9ORF72 G4C2 repeat expansion; experiment: Nigericin treatment of C9-ALS/FTD patient fibroblasts; type: cell-based, human
Experimental: (§2) Finally, it was tested whether the pathogenic mechanisms uncovered in flies are relevant to GR toxicity in patient cells. In fibroblasts from C9-ALS/FTD patients carrying C9ORF72 G4C2 repeat expansion, GR was present in the mitochondrial fraction, as shown by dot blot (FIG. 46) and immunostaining (FIG. 46), although nuclear GR was also detected (FIG. 46). […] Thus, altered mitochondrial inner membrane structure and ion homeostasis are conserved features of C9-ALS. There were also GR interactions with Mic27/Apool in patient fibroblasts (FIG. 49). Nigericin treatment (FIGS. 50 & 51) or knockdown of key MICOS components (FIGS. 49 & 52) rescued the mitochondrial defects in patient fibroblasts. […] Nigericin treatment (FIG. 54) or knockdown of key MICOS components (FIG. 53) reduced the GR level in patient cells, but nigericin had no effect on the GA level (FIG. 53).

[5] = test system: HEK293 cells transfected with GR80; experiment: mito-K+ in HEK293 cells transfected with GR80; type: cell-based; conditions: HEK293 cells transfected with GR80, FIG. 53
Experimental: as §2

GR80 fly muscle = experiment: Nigericin treatment of GR80 transgenic flies; type: in vivo, Drosophila
Description: To further test whether high MMP and altered ion homeostasis contribute to GR80 toxicity, GR80 flies we treated with nigericin, a K^+/H^+ antiporter that can re-balance mitochondrial matrix ion levels. […] Moreover, the aberrant interactions between MICOS subunits caused by GR80 (FIG. 42) and the elevated mito-K^+ in GR80 flies were rescued after nigericin treatment (FIGS. 41 & 42). Thus, by restoring mitochondrial ion homeostasis, nigericin may affect the MICOS structure and, in turn, GR80 stability, similar to the effects of the genetic manipulation of MICOS, although other mechanisms of nigericin action cannot be excluded.
Newly hatched flies were collected and placed into vials with instant fly food (Carolina Biological Supply Company, USA) mixed with different doses ([…]) of Nigericin (Cayman Chemical, 11437) from the stock solution (50 mM dissolved in DMSO). The flies were fed for 7 days and changed with fresh vial every 24 hours. After treatments, fly thoracic samples were harvested and used for sample preparation.

With `COc1ccc(C[C@H]2NC[C@H](O)[C@H]2OC(C)=O)cc1` [Anisomycin, anisomycin] the “level of poly(GR) containing an artificial CAT-tail (GR71-AT15)” value (GR80) was “not affected”.
In the case of `CCOC(=O)C1=C(N)Oc2ccc(Cl)cc2C1C(C#N)C(=O)OCC` (centres unmarked) [SC79], the “motor behavior as detected with the rotarod assay” value [1] is reported as “improved”, the Flag-GR80 level [2] is reported as “reduced” and the muscle mitochondrial morphology ([3]; FIGS. 95 & 96) is reported as “rescue”. For the same molecule, the “poly(GR) level in muscle tissue” value ([3]; FIGS. 97 & 98) was “reduction”, the mitochondrial morphology (patient fibroblasts; FIG. 93) was “rescued” and the “poly(GR) level” value (patient fibroblasts; FIGS. 78 & 94) was “significantly reduced”.
In the case of `CO[C@@H]1C[C@@H](C[C@H]2CC[C@H](C)[C@H]([C@@H](C)C(=O)O)O2)O[C@]2(O[C@](C)([C@H]3CC[C@@](C)([C@@H]4O[C@@H]([C@H]5O[C@@](O)(CO)[C@H](C)C[C@@H]5C)C[C@@H]4C)O3)C[C@H]2C)[C@@H]1C` [nigericin], the “GR level in patient cells” value ([4]; C9-ALS/FTD patient fibroblasts, FIG. 54) is reported as “reduced”, the “mitochondrial defects in patient fibroblasts” value ([4]; C9-ALS/FTD patient fibroblasts, FIGS. 50 & 51) is reported as “rescued” and the GA level ([4]; patient cells, FIG. 53) is reported as “no effect”. The “GR-induced mito-K+ increase” value [5] was “reduced”, the “GR80 level in fly muscle” value (GR80 fly muscle; GR80 flies, FIG. 44) was “significantly reduced” and the mitochondrial morphology (GR80 fly muscle; GR80 flies, low concentrations of nigericin in food, FIG. 43) was “effectively restored”. The “GR80 fly wing-posture defect” value (GR80 fly muscle; GR80 flies, nigericin in food, FIG. 44) was “rescue”, the “aberrant interactions between MICOS subunits caused by GR80” value (GR80 fly muscle; after nigericin treatment, FIG. 42) was “rescued” and the “elevated mito-K+ in GR80 flies” value (GR80 fly muscle; after nigericin treatment, FIGS. 41 & 42) was “rescued”. The GA80 level (GR80 fly muscle; flies, specificity control, FIG. 42) was “did not affect”.
